Earlier results on one compound are cited in publication PMC3185201 (Molecular pharmaceutics, 2011).

This series relates to NEP 24.11. The conditions noted are these: prior study.

Turning to `CC[C@H](C)[C@H](NC(=O)[C@H](Cc1ccccc1)NC(=O)[C@H](CCC(=O)O)NC(=O)[C@H](CCCCN)NC(=O)[C@H](C)NC(=O)[C@H](C)NC(=O)[C@H](CCC(N)=O)NC(=O)[C@@H]1CCCCNC(=O)CC[C@H](NC(=O)[C@H](CO)NC(=O)[C@@H](NC(=O)[C@H](CC(=O)O)NC(=O)[C@H](CO)NC(=O)[C@@H](NC(=O)[C@H](Cc2ccccc2)NC(=O)[C@@H](NC(=O)CNC(=O)[C@H](CCC(=O)O)NC(=O)C(C)(C)NC(=O)[C@@H](N)Cc2c[nH]cn2)[C@@H](C)O)[C@@H](C)O)C(C)C)C(=O)N[C@@H](Cc2ccc(O)cc2)C(=O)N[C@@H](CC(C)C)C(=O)N[C@@H](CCC(=O)O)C(=O)N1)C(=O)N[C@H]1CCC(=O)NCCCC[C@@H](C(=O)NCC(=O)N[C@@H](CCCNC(=N)N)C(=O)NCCCCCC(=O)N[C@@H](CS)C(N)=O)NC(=O)[C@H](C(C)C)NC(=O)[C@H](CC(C)C)NC(=O)[C@H](Cc2c[nH]c3ccccc23)NC1=O` [EM3106B], the “Protection from the degradation by NEP 24.11” value is given as “outstanding protection”.
